From publication PMC6272646, “Understanding the Physicochemical Properties of Mitragynine, a Principal Alkaloid of Mitragyna speciosa, for Preclinical Evaluation” (Molecules, 2015)

How the values were obtained:
[1] = Stability in buffers pH 4, 7, 9 (percentage recovered); format: physicochemical; settings: for percentage recovered: 20 µg/mL
Description: The HPLC system consisted of a Jasco delivery pump (Tokyo, Japan) equipped with autosampler connected to a Waters 2487 detector (Milford, MA, USA) coupled to Jasco Chromnav software (Version 2.0, Tokyo, Japan). Chromatographic separation was performed on a C8 Agilent Eclipse plus (4.6 mm i.d. × 250 mm, 5-μm particle size; Apple Valley, MN, USA). The HPLC-UV method was adapted from our previous study and revalidated for the present HPLC system. The method was employed to quantify mitragynine in partition coefficient, stability, dissolution and solubility studies.
For solubility studies, an excess of mitragynine was added to 1.0 mL each of distilled water or buffers at pH 4, 7 and 9. The test tubes were placed in a water bath shaker at 37 degrees Celsius at 100 cycles/min for 48 h until equilibrium. The samples were centrifuged at 3000 rpm for 5 min and supernatant was taken for quantification of mitragynine by HPLC-UV. […] A 0.1 mL aliquot was collected from each buffer system at intervals of 0, 0.5, 6.0 and 24.0 h for determination of mitragynine. Mitragynine concentrations were expressed as percentage recovered. All experiments were performed in triplicates.

[2] = In vitro release (dissolution) from capsules filled with mitragynine pure standard; format: physicochemical; settings: up to 2 h, capsule, basket method, 50 rpm, 37 °C
Description: Hard shell gelatin capsules filled with mitragynine pure standard were used in the in vitro dissolution study. In order to characterize the release of mitragynine, drug release profile was generated, in which mitragynine release values were determined as a function of time. The US pharmacopoeia I (basket) method was used for the in vitro dissolution study. SGF (pH 1.2) and SIF (pH 6.8) were prepared without enzymes. These media were used for the dissolution study, respectively. The capsule filled with mitragyine was introduced into 500 mL of dissolution medium. The capsule was agitated at 50 rpm at 37 °C. An aliquot (1 mL) of sample was withdrawn at predetermined time intervals of 5, 10, 15, 30, 40, 60, 90 and 120 min after onset of the dissolution. The samples were filtered through 0.45 um PTFE syringe filters, diluted with ACN (1:1) and the drug concentration was determined by the validated RP-HPLC-UV method. Samples were analyzed along with QC samples.

[3] = rats, cited from earlier work
opiate receptor = tested on: opiate receptor; set-up: method as in ref 29 = [29]; 29. Watanabe K. Yano S. Horie S. Yamamoto L.T. Takayama H. Aimi N. Sakai S. Ponglux D. Tongroach P. Shan J. Pharmacological properties of some structurally related indole alkaloids contained in the As; settings: cited from earlier work
[4] = set-up: method as in PMID 24841968; settings: cited from earlier work
[5] = Stability in simulated gastric fluid (SGF, with enzymes); settings: for Concentration Found in SGF: SGF pH ~1.2 with pepsin, 37 °C

CC[C@@H]1CN2CCc3c([nH]c4cccc(OC)c34)[C@@H]2C[C@@H]1/C(=C\OC)C(=O)OC [mitragynine]
stability in buffer (in words) ([1]; pH 4): appears to degrade over time | percentage recovered ([1]; pH 4 buffer, 0.5 h): 100.6 ± 0.3% | percentage recovered ([1]; pH 4 buffer, 6 h): 91.8 ± 1.0% | percentage recovered ([1]; pH 4 buffer, 24 h): 88.8 ± 1.4% | stability in buffer (in words) ([1]; pH 7 and 9, 24 h): stable | percentage recovered ([1]; pH 7 buffer, 0.5 h): 99.2 ± 0.4% | percentage recovered ([1]; pH 7 buffer, 6 h): 96.1 ± 1.9% | percentage recovered ([1]; pH 7 buffer, 24 h): 101.9 ± 0.9% | percentage recovered ([1]; pH 9 buffer, 0.5 h): 101.3 ± 2.6% | percentage recovered ([1]; pH 9 buffer, 6 h): 97.8 ± 0.3% | percentage recovered ([1]; pH 9 buffer, 24 h): 95.5 ± 2.5% | drug released (dissolution) ([2]; SGF pH 1.2 without enzymes): 80% | drug released (dissolution) ([2]; SIF pH 6.8 without enzymes): 22% | Cmax ([3]; oral dose 20–50 mg/kg): 0.4 to 2.3 µg/mL | half-life ([3]; oral dose 20–50 mg/kg): 3.8 to 9.4 h | absolute oral bioavailability [3]: ≈ 3% | antinociceptive effect, potency compared with M. speciosa crude extract (opiate receptor): less potent than the M. speciosa crude extract | drug loss in SGF [4]: 26% | Concentration Found in SGF ([5]; 0 min): 18.72 ± 0.05 µg/mL | RD (relative difference vs time 0) in SGF ([5]; 10 min): −0.21% | Concentration Found in SGF ([5]; 10 min): 18.68 ± 0.23 µg/mL | RD (relative difference vs time 0) in SGF ([5]; 20 min): −20.00% | Concentration Found in SGF ([5]; 20 min): 14.98 ± 0.88 µg/mL | RD (relative difference vs time 0) in SGF ([5]; 30 min): −22.5% | Concentration Found in SGF ([5]; 30 min): 14.54 ± 0.58 µg/mL | Concentration Found in SGF ([5]; 40 min): 14.19 ± 0.37 µg/mL | RD (relative difference vs time 0) in SGF ([5]; 50 min): −24.19% | Concentration Found in SGF ([5]; 50 min): 14.11 ± 0.22 µg/mL | RD (relative difference vs time 0) in SGF ([5]; 60 min): −25.53% | Concentration Found in SGF ([5]; 60 min): 13.94 ± 0.20 µg/mL | stability in SGF (in words) ([5]; SGF pH ≈ 1.2, 37 °C): not stable | relative deviation / drug loss in SGF ([5]; from the 20 min time point onwards): greater than 20%
